According to patent US9248098B2, “Treating or preventing pain using spicamycin derivatives” (DARA BIOSCIENCES, INC., priority 2008, dated 2016):

Tests used:
[1] = tested on: patients with end-stage cancer experiencing neuropathic pain; test: Phase 2 placebo-controlled study of KRN5500, safety; type: in vivo, human
Description: (§1) A Phase 2, multicenter, placebo-controlled, randomized, parallel group study was carried out to evaluate the safety, efficacy, and dose-response of KRN5500 in patients with end-stage cancer experiencing neuropathic pain. Nineteen (19) patients were enrolled in the study. Thirteen were randomized to receive KRN5500 and 6 were randomized to receive placebo. Due to a randomization error at an investigative site, one patient randomized to receive KRN5500 actually received placebo. Of the 12 patients who received KRN5500, 3 (25%) completed all dosing visits. Two (28.6%) of the patients who received placebo completed all dosing visits. No patients were lost to follow up and no patients died.
(§2) The median duration of exposure to KRN5500 was 40 days compared to 29 days for placebo. On average, KRN5500 patients took 5.3 doses while placebo patients took 4.4 doses. The highest dose received was 2.2 mg/m^2. Seven (58.3%) of KRN5500 patients were exposed to at least one dose at this level, while 4 (57.1%) of Placebo patients were exposed to at least one dose at this level.
All patients treated with KRN5500 (100%) had at least one treatment emergent adverse event, compared to 86% (6 of 7 patients) in the Placebo treated group. Events recorded by the KRN5500 patients tended to be more severe (84% moderate or severe in KRN5500 vs. 71% in Placebo). Events were typically gastrointestinal disorders such as nausea or vomiting and were more frequently considered to be related to treatment in the KRN5500 group than in the Placebo group (92% vs. 14%). Three patients (25%) in the KRN5500 group and 1 (14%) patient in the Placebo group experienced serious adverse events (AEs). […] Two patients treated with KRN5500 withdrew from the study due to nausea and vomiting which were thought to be related to study drug. One patient treated with KRN5500 withdrew due to convulsions not thought to be related to study drug. One patient treated with Placebo withdrew from the study due to a stroke not related to study drug.

[2] = tested on: rat models of neuropathic pain; details: Abdi et al. 2000; Kobierski et al. 2003; cited from earlier work
[3] = tested on: patients with end-stage cancer experiencing neuropathic pain; test: Phase 2 placebo-controlled study of KRN5500, efficacy on neuropathic pain; type: in vivo, human; details: for median decrease from baseline in pain intensity, clinic numeric rating scale (NRS) scores: placebo median change zero
Description: as §1
The treatment groups were similar in demographics, with the majority of patients being Caucasian (73.7%) and approximately 50/50 in distribution by gender. The median age of patients enrolled was 62 years, ranging from 41 to 84 years. The average body surface area (BSA) was 1.8 m^2 ranging from 0.95 to 2.27 m^2. The majority of the patient population had allodynia (84.2%). This and other baseline characteristics of neuropathic pain were consistent between the treatment groups.
as §2
Pain intensity, based on clinic numeric rating scale (NRS) scores, was analyzed for both the Intent-to-treat (ITT) and modified efficacy (ME) populations. […] Since more than 80% of patients had allodynia as a baseline characteristic, results from the analysis of the subset of patients with allodynia present at baseline was consistent with the overall analysis. Too few patients presented without allodynia at baseline to adequately draw conclusions in this subset. […] Three (25%) of the KRN5500 treated patients achieved 33% or greater pain decrease and none of the placebo patients achieved this level.

[4] = of 12 patients who received KRN5500
[5] = brief pain inventory, no change in placebo
[6] = neuropathic pain questionnaire, versus placebo

## CCCCCCCCC/C=C/C=C/C(=O)NCC(=O)N[C@@H]1[C@@H](O)[C@@H](O)[C@@H](Nc2ncnc3[nH]cnc23)O[C@H]1[C@@H](O)CO [KRN5500, 6-[4-deoxy-4-[(2E,4E)-tetradecadienoylglycyl}amino-L-glycero-β-L-mannoheptopyranosyl]amino-9H-purine]
[1]; generally considered related to study drug
  incidence of nausea and vomiting: High incidences of nausea and vomiting
[1]; in vivo
  deaths: No deaths were observed
  relation of serious AEs to study drug: None were considered to be related to study drug
[1]; [4]
  patients withdrawn due to convulsions not thought to be related to study drug: One
  patients withdrawn due to nausea and vomiting thought to be related to study drug: Two
[1]; placebo 71%
  adverse events moderate or severe: 84%
[1]; placebo 86% (6 of 7 patients)
  patients with at least one treatment emergent adverse event: 100%
[1]; three patients, placebo 1 (14%)
  patients experiencing serious adverse events (AEs): 25%
[1]; throughout the study
  clinically significant laboratory abnormalities, changes in vital signs, physical examinations, or ECGs: not observed
[1]; typically gastrointestinal disorders such as nausea or vomiting, placebo 14%
  adverse events considered to be related to treatment: 92%
[2]
  efficacy in rat models of neuropathic pain: effective
[3]; 1 week post-dose follow up
  aggregated physical and mental SF-12 scores: basically unchanged from baseline
[3]; ITT or ME population analysis
  dose response at last dose received (Endpoint): no trend for dose response
[3]; Intent-to-treat (ITT) population
  median decrease from baseline in pain intensity, clinic numeric rating scale (NRS) scores: 22%
[3]; Wilcoxon Rank Sum test of the medians, ME analysis, p=0.03
  significance of decrease in pain intensity (clinic NRS): statistically significant decrease
[3]; affected and unaffected areas, versus placebo
  dynamic and cold allodynia assessment: larger decrease in pain associated with both touch and cold
[3]; [5]
  BPI: aggregate measure of pain's interference in the last 24 hours: decreases from baseline
  BPI: patient perception of pain at its least in the past 24 hours: decreases from baseline
[3]; diary endpoint, 5 of KRN5500 treated patients, placebo 1 (14%)
  patients with a 20% or greater reduction in pain intensity: 42%
[3]; modified efficacy (ME) population
  median decrease from baseline in pain intensity, clinic numeric rating scale (NRS) scores: 23.6%
[3]; [6]
  NPQ individual questions: burning pain, electric pain and freezing pain: decreases from baseline in favor of KRN5500
  NPQ questions: sensitivity to touch, shooting pain, numbness, tingling, or squeezing pain: no different between treatment groups
  NPQ: increased pain due to touch or to weather changes: no treatment differences
[3]; placebo showed no decrease
  best pain intensity response (largest decrease in pain) recorded in clinic over all doses, median decrease: 29.3%
  median decrease in pain intensity based on diary data: 16.4%
[3]; supplemental pain questionnaire
  SPQ: brush/touch induced pain scores: greater decrease in pain scores than the Placebo treated patients
[3]; supplemental pain questionnaire, at endpoint, both groups decreased
  SPQ: cold induced pain: no treatment differences
[3]; three KRN5500 treated patients, none of the placebo patients
  patients achieving 33% or greater pain decrease: 25%
[3]; throughout the study, baseline median 75
  Karnofsky Performance Status (KPS): did not change throughout the study
